In patent US9822138B2, “Antiviral beta-amino acid ester phosphodiamide compounds” (Merck Sharp & Dohme Corp., priority 2015, dated 2017):
Where two headings read alike, the source gives them in different places.

What was measured:
HIV-1 (H9/IIIB strain) = experiment: microbe, parasite or virus in culture; format: cell-based; details: MT4-GFP cells infected with HIV-1 H9/IIIB, inhibition of reproductive ratio R0
Protocol: Assessing Antiviral Potency in a Multiple Round HIV-1 Infection Assay (Viking Assay)
The antiviral activity of the tenofovir prodrugs of the Examples herein was assessed in an assay that measures the rate of replication of HIV in cell culture, termed the Viking assay (Viral KINetics in Green cells) and performed as follows. HIV-1 replication was monitored using MT4-gag-GFP clone D3 (hereafter designated MT4-GFP), which are MT-4 cells modified to harbor a GFP reporter gene, the expression of which is dependent on the HIV-1 expressed proteins tat and rev. Productive infection of an MT4-GFP cell with HIV-1 results in GFP expression approximately 24 h post-infection. MT4-GFP cells were maintained at 37° C./5% CO2/90% relative humidity in RPMI 1640 supplemented with 10% fetal bovine serum, 100 U/ml penicillin/streptomycin, and 400 μg/ml G418 to maintain the reporter gene. For infections, MT4-GFP cells were placed in the same medium lacking G418 and infected overnight with HIV-1 (H9/IIIB strain) virus at an approximate multiplicity of infection of 0.01 in the same incubation conditions. Cells were then washed and re-suspended in either RPMI 1640 supplemented with 10% or 50% normal human serum (NHS) at 1.6×10^5 cells/mL (10% NHS or 50% NHS, respectively). Compound plates were prepared by dispensing compounds dissolved in DMSO into wells of 384 well poly-D-lysine-coated plates (0.2 μl/well) using an ECHO acoustic dispenser. Each compound was tested in a 10-point serial 3-fold dilution (typical final concentrations: 8.4 μM-0.42 nM). Controls included no inhibitor (DMSO only) and a combination of three antiviral agents (efavirenz, indinavir, an in-house integrase strand transfer inhibitor at final concentrations of 4 μM each). Cells were added ([…]) to compound plates and the infected cells were maintained at 37° C./5% CO2/90% relative humidity.
Infected cells were quantified at two time points, ˜48 h and ˜72 h post-infection, by counting the number of green cells in each well using an Acumen eX3 scanner. […] Inhibition of R0 is calculated for each well, and IC50s determined by non-linear 4-parameter curve fitting.

[1] = Prodrug stability assay in bio-relevant media (FaSSIF with pancreatin; GI tract stability); format: in vitro ADME; details: parent prodrug area at 5 h divided by area at 0 h; 37° C.; 0.5 mg/mL pancreatin in FaSSIF
Protocol: Prodrug Stability Assay in Bio-Relevant Media
The following assay was employed to evaluate the stability of the prodrugs in simulated gastrointestinal tract conditions. Preparation of fasted state simulated intestinal fluid (FaSSIF) using Phares SIF Powder was carried out according to protocols from Phare Drug Delivery AG (Baselland, Switzerland). For sample preparation, 10 μL stock solutions (10 mM) of prodrug substance in DMSO was added to 990 μL of 0.5 mg/mL Pancreatin solution (Fisher CAS#8049-47-6) in FaSSIF. Two samples were prepared for each compound at initial. If the sample was clear solution at the beginning, ran one sample directly as initial by HPLC; if the sample was not clear at starting, diluted the sample by 100% ACN. Put the other sample under 37° C. and observed the sample at 5 h time-point. At 5 h time point, if the sample was clear solution then performed HPLC analysis directly; if it was not clear solution, diluted the sample by 100% ACN and assayed by HPLC. All the samples were vortexed for 3 min and observed before injection. For the diluted samples, the area will be multiplied by a factor when data analysis. The analysis was carried out with an Agilent 1100 series HPLC with autosampler. The column was usually a Poroshell 120 EC-C18, 4.6×50 mm, 2.7 μm. The flow rate was 1.8 mL/min, and the injection volume was 5 or 10 μL. UV detection was in the range 210-400 nm. The mobile phase consisted of solvent A (water plus 10 mM tetrabutylammonium bromide) and solvent B (acetonitrile) with a gradient of 90% solvent A at 0 min changing to 95% solvent B over 6 min, maintained for 1.5 min, then reverting to 90% solvent A over 1.6 min. The area of the parent in prodrug at 5 h time point was divided by the area of the parent in prodrug at 0 h time point, to generate the % claimed parent ratio, which are summarized in Table 5 for GI Tract stability.

[2] = 10% normal human serum, read-out: Viking, IC50 (10% NHS)
[3] = 50% normal human serum, read-out: Viking, IC50 (50% NHS)
[4] = Human immunodeficiency virus 1, 10% normal human serum, read-out: Viking, IC50 (10% NHS)
[5] = Human immunodeficiency virus 1, 50% normal human serum, read-out: Viking, IC50 (50% NHS)

Structure (SMILES)	IC50 (HIV-1 (H9/IIIB strain); [2]) [nM]	IC50 (HIV-1 (H9/IIIB strain); [3]) [nM]	GI Tract stability [1] [%]	IC50 (HIV-1 (H9/IIIB strain); [4]) [nM]	IC50 (HIV-1 (H9/IIIB strain); [5]) [nM]
CC(C)OC(=O)C[C@H](C)NP(=O)(CO[C@H](C)Cn1cnc2c(N)ncnc21)N[C@H](C)C(=O)OC1CCC1 (single isomer, unassigned) [Example 19A]	51.2	195	100		
CC(C)OC(=O)[C@@H](C)CNP(=O)(CO[C@H](C)Cn1cnc2c(N)ncnc21)N[C@H](C)C(=O)OC1CCC1 (single isomer, unassigned) [Example 20B]	112	432	99.3		
CC(C)OC(=O)[C@@H](C)CNP(=O)(CO[C@H](C)Cn1cnc2c(N)ncnc21)N[C@H](C)C(=O)OC1CCCC1 (single isomer, unassigned) [Example 22B]	83.8	291	99.2		
CC(C)OC(=O)CCNP(=O)(CO[C@H](C)Cn1cnc2c(N)ncnc21)N[C@H](C)C(=O)OC1CCC1 (single isomer, unassigned) [Example 23B]	121	488	101		
CCCCCOC(=O)C(C)(C)N[P@](=O)(CO[C@H](C)Cn1cnc2c(N)ncnc21)N[C@@H](CC(=O)OC(C)C)C(C)C (single isomer, unassigned) [Example 24A]			76	0.8	4.4
CC(C)OC(=O)C[C@H](N[P@@](=O)(CO[C@H](C)Cn1cnc2c(N)ncnc21)NC(C)(C)C(=O)OC(C)C)C(C)C (single isomer, unassigned) [Example 25A]			99.0	4.7	12
CCCCCOC(=O)C(C)(C)NP(=O)(CO[C@H](C)Cn1cnc2c(N)ncnc21)N[C@@H](C)CC(=O)OC(C)C (single isomer, unassigned) [Example 26B]	1.5	6.8	96.9		
CCCCCCOC(=O)C(C)(C)NP(=O)(CO[C@H](C)Cn1cnc2c(N)ncnc21)N[C@@H](CC(=O)OC(C)C)C(C)C (single isomer, unassigned) [Example 28B]	2.1	5.7	83		
CC(C)OC(=O)C[C@H](N[P@](=O)(CO[C@H](C)Cn1cnc2c(N)ncnc21)NC(C)(C)C(=O)OC(C)C)C(C)C [Example 25B]			100	590	> 2000
